{"source": "ChEMBL document CHEMBL1955731", "about": "“Design and synthesis of novel bone-targeting dual-action pro-drugs for the treatment and reversal of osteoporosis” (Bioorg Med Chem, 2012)", "key": {"Plasma [1]": {"tested_on": "Plasma", "assay": "Prodrug conversion in rat plasma assessed as compound conversion to 7-((R)-2-((R,E)-4,4-difluoro-3-hydroxy-4-phenylbut-1-enyl)-5-oxopyrrolidin-1-yl)heptanoic acid at 100 ug/ml for 96 hrs by HPLC-MS-MS analysis", "assay_type": "ADME, cell-free"}, "Bone [2]": {"tested_on": "Bone", "assay": "Binding affinity to rat bone at 0.1 mg/ml after 10 mins", "assay_type": "ADME, tissue-based, Bone element"}, "[3]": {"assay": "Drug excretion in Sprague-Dawley rat feces at 5 mg/kg, iv after 24 hrs", "assay_type": "ADME, organism-based", "design": "dose 5 mg/kg, route intravenous", "conditions": "in vivo; call rule not given here"}, "[4]": {"assay": "Elimination half life in Sprague-Dawley rat at 5 mg/kg, iv", "assay_type": "ADME, organism-based", "design": "dose 5 mg/kg, route intravenous", "conditions": "in vivo, read-out: beta t1/2"}, "Bone [5]": {"tested_on": "Bone", "assay": "Drug uptake in Sprague-Dawley rat bone at 5 mg/kg, iv after 28 days", "assay_type": "ADME, organism-based, Bone element", "design": "dose 5 mg/kg, route intravenous", "conditions": "in vivo, 672 h"}, "Bone [6]": {"tested_on": "Bone", "assay": "Drug uptake in rat bone after 5 mins", "assay_type": "ADME, tissue-based, Bone element", "conditions": "in vivo"}, "Rattus norvegicus": {"tested_on": "Rattus norvegicus", "assay": "Toxicity in Sprague-Dawley rat at 5 mg/kg, iv", "assay_type": "organism-based", "design": "dose 5 mg/kg, route intravenous", "conditions": "in vivo"}, "Bone [7]": {"tested_on": "Bone", "assay": "Drug uptake in Sprague-Dawley rat bone at 5 mg/kg, iv after 24 hrs", "assay_type": "ADME, organism-based, Bone element", "design": "dose 5 mg/kg, route intravenous", "conditions": "in vivo"}, "[8]": {"assay": "Drug excretion in Sprague-Dawley rat urine at 5 mg/kg, iv after 24 hrs", "assay_type": "ADME, organism-based", "design": "dose 5 mg/kg, route intravenous", "conditions": "in vivo"}, "Bone [9]": {"tested_on": "Bone", "assay": "Drug uptake in Sprague-Dawley rat bone at 5 mg/kg, iv after 7 days", "assay_type": "ADME, organism-based, Bone element", "design": "dose 5 mg/kg, route intravenous", "conditions": "in vivo, 168 h"}, "Bone [10]": {"tested_on": "Bone", "assay": "Drug uptake in Sprague-Dawley rat bone at 5 mg/kg, iv after 14 days", "assay_type": "ADME, organism-based, Bone element", "design": "dose 5 mg/kg, route intravenous", "conditions": "in vivo, 336 h"}, "Plasma [11]": {"tested_on": "Plasma", "assay": "Prodrug conversion in rat plasma assessed as compound conversion to 7-((R)-2-((R,E)-4,4-difluoro-3-hydroxy-4-phenylbut-1-enyl)-5-oxopyrrolidin-1-yl)heptanoic acid at 100 ug/ml after 30 mins by HPLC analysis", "assay_type": "ADME, cell-free", "conditions": "0.5 h"}, "Bone [12]": {"tested_on": "Bone", "assay": "Drug uptake in Sprague-Dawley rat bone at 10 mg/kg, iv after 7 days", "assay_type": "ADME, organism-based, Bone element", "design": "dose 10 mg/kg, route intravenous", "conditions": "in vivo, 168 h"}, "Bone [13]": {"tested_on": "Bone", "assay": "Drug uptake in Sprague-Dawley rat bone at 10 mg/kg, iv after 2 days", "assay_type": "ADME, organism-based, Bone element", "design": "dose 10 mg/kg, route intravenous", "conditions": "in vivo, 48 h"}, "[14]": {"assay": "Elimination half life in Sprague-Dawley rat at 10 mg/kg, iv", "assay_type": "ADME, organism-based", "design": "dose 10 mg/kg, route intravenous", "conditions": "in vivo, read-out: beta t1/2"}, "Bone [15]": {"tested_on": "Bone", "assay": "Drug uptake in Sprague-Dawley rat bone at 10 mg/kg, iv after 6 hrs", "assay_type": "ADME, organism-based, Bone element", "design": "dose 10 mg/kg, route intravenous", "conditions": "in vivo"}, "Bone [16]": {"tested_on": "Bone", "assay": "Drug uptake in Sprague-Dawley rat bone at 10 mg/kg, iv after 14 days", "assay_type": "ADME, organism-based, Bone element", "design": "dose 10 mg/kg, route intravenous", "conditions": "in vivo, 336 h"}}, "data": [{"molecule": "CCOC(=O)CCCCCCN1C(=O)CC[C@@H]1/C=C/[C@@H](OC(=O)NCCCC(O)(P(=O)(O)O)P(=O)(O)O)C(F)(F)c1ccccc1", "values": [{"measurement": "Drug metabolism", "setting": "Plasma [1]", "value": "Not Active"}]}, {"molecule": "O=C1CC[C@H](/C=C/[C@@H](O)C(F)(F)c2ccccc2)N1CCCCCCc1nnn[nH]1", "values": [{"measurement": "Activity", "setting": "Bone [2]", "value": "Not Active"}]}, {"molecule": "[3H]C([3H])([3H])COC(=O)CCCCCCN1C(=O)CC[C@@H]1/C=C/[C@@H](OC(=O)NCCCC(O)(P(=O)(O)O)P(=O)(O)O)C(F)(F)c1ccccc1", "values": [{"measurement": "Drug excretion", "setting": "[3]", "value": "Active"}, {"measurement": "half-life", "setting": "[4]", "value": "< 15", "unit": "min"}, {"measurement": "Activity", "setting": "Bone [2]", "value": 90, "unit": "%"}, {"measurement": "Drug uptake", "setting": "Bone [5]", "value": 5.6, "unit": "%"}, {"measurement": "Drug uptake", "setting": "Bone [6]", "value": 96, "unit": "%"}, {"measurement": "Activity", "setting": "Rattus norvegicus", "value": "Non-toxic"}, {"measurement": "Drug uptake", "setting": "Bone [7]", "value": 9.4, "unit": "%"}, {"measurement": "Drug excretion", "setting": "[8]", "value": "Not Active"}, {"measurement": "Drug uptake", "setting": "Bone [9]", "value": 8, "unit": "%"}, {"measurement": "Drug uptake", "setting": "Bone [10]", "value": 6.2, "unit": "%"}]}, {"molecule": "CCOC(=O)CCCCCCN1C(=O)CC[C@@H]1/C=C/[C@@H](O)C(F)(F)c1ccccc1", "values": [{"measurement": "Drug metabolism", "setting": "Plasma [11]", "value": "Active"}, {"measurement": "Activity", "setting": "Bone [2]", "value": "Not Active"}]}, {"molecule": "O=C(O)CCCCCCN1C(=O)CC[C@@H]1/C=C/[C@@H](O)C(F)(F)c1ccccc1", "values": [{"measurement": "Activity", "setting": "Bone [2]", "value": "Not Active"}]}, {"molecule": "CCN(CC)CC.[3H]C([3H])([3H])COC(=O)CCCCCCN1C(=O)CC[C@@H]1/C=C/[C@@H](OC(=O)Cc1ccc(OC(=O)NCCCC(O)(P(=O)(O)O)P(=O)(O)O)cc1)C(F)(F)c1ccccc1", "values": [{"measurement": "Drug uptake", "setting": "Bone [12]", "value": 2.2, "unit": "%"}, {"measurement": "Drug uptake", "setting": "Bone [13]", "value": 4.9, "unit": "%"}, {"measurement": "half-life", "setting": "[14]", "value": "< 30", "unit": "min"}, {"measurement": "Drug uptake", "setting": "Bone [15]", "value": 5.9, "unit": "%"}, {"measurement": "Drug uptake", "setting": "Bone [16]", "value": 1.4, "unit": "%"}]}]}
